From patent US20230085307A1, “PYRIDAZINONE COMPOUND AND HERBICIDE” (NISSAN CHEMICAL CORPORATION, priority 2019, published 2023)

Experiments:
late watergrass = assay: Test Example 1: herbicidal activity, application before weed generation under submerged conditions (Table 16, symbol A); assay type: in vivo, late watergrass (Echinochloa oryzicola)
How it was run: (§1)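 Emulsion formulation, water-diluted to set dose, was put onto the flooded surface (4 cm depth, alluvial soil) the same day weeds were sown and 2.5-leaf rice transplanted. After 3 weeks at 25-30 °C under glass, each species was rated 0 (≤5% kill) to 5 (≥90% kill).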

Japanese bulrush = assay: Test Example 1: herbicidal activity, application before weed generation under submerged conditions (Table 16, symbol B); assay type: in vivo, Japanese bulrush (Schoenoplectus juncoides)
How it was run: as §1

oval-leafed pondweed = assay: Test Example 1: herbicidal activity, application before weed generation under submerged conditions (Table 16, symbol C); assay type: in vivo, oval-leafed pondweed (Monochoria vaginalis)
How it was run: as §1

barnyard grass [1] = assay: Test Example 3: herbicidal effect by foliage application, Wagner pot (Table 18, symbol H); assay type: in vivo, barnyard grass (Echinochloa crus-galli); conditions: amount of applied herbicide 320 g/ha
How it was run: (§2)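 Plants were sown in alluvial soil held under 0.1–0.5 cm standing water and grown 14 days in a greenhouse at 25–30 °C. An emulsifiable formulation, water-diluted to the set dose, was then sprayed onto the foliage, and effects were scored three weeks later using previously defined criteria.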

Chinese sprangletop = assay: Test Example 3: herbicidal effect by foliage application, Wagner pot (Table 18, symbol D); assay type: in vivo, chinese sprangletop (Leptochloa chinensis); conditions: amount of applied herbicide 320 g/ha
How it was run: as §2

rice flat sedge = assay: Test Example 3: herbicidal effect by foliage application, Wagner pot (Table 18, symbol E); assay type: in vivo, rice flat sedge (Cyperus iria); conditions: amount of applied herbicide 320 g/ha
How it was run: as §2

southern crabgrass [2] = assay: Test Example 4: herbicidal effect by soil treatment (Table 19, symbol F); assay type: in vivo, southern crabgrass (Digitaria ciliaris); conditions: amount of applied herbicide 320 g/ha
How it was run: (§3)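 In this soil treatment, the formulated compound reached the seeds only through the soil: seeds were buried about 1.5 cm deep in sterilized diluvial soil, then the diluted emulsion was sprayed over the surface. After three weeks at 25° C. to 30° C. in a greenhouse, effects were graded on criteria from an earlier test.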

green foxtail [3] = assay: Test Example 4: herbicidal effect by soil treatment (Table 19, symbol G); assay type: in vivo, green foxtail (Setaria viridis); conditions: amount of applied herbicide 320 g/ha
How it was run: as §3

barnyard grass [4] = assay: Test Example 4: herbicidal effect by soil treatment (Table 19, symbol H); assay type: in vivo, barnyard grass (Echinochloa crus-galli); conditions: amount of applied herbicide 320 g/ha
How it was run: as §3

wild oat [5] = assay: Test Example 4: herbicidal effect by soil treatment (Table 19, symbol I); assay type: in vivo, wild oat (Avena fatua); conditions: amount of applied herbicide 320 g/ha
How it was run: as §3

blackgrass [6] = assay: Test Example 4: herbicidal effect by soil treatment (Table 19, symbol J); assay type: in vivo, blackgrass (Alopecurus myosuroides); conditions: amount of applied herbicide 320 g/ha
How it was run: as §3

Italian ryegrass [7] = assay: Test Example 4: herbicidal effect by soil treatment (Table 19, symbol K); assay type: in vivo, Italian ryegrass (Lolium multiflorum); conditions: amount of applied herbicide 320 g/ha
How it was run: as §3

windgrass [8] = assay: Test Example 4: herbicidal effect by soil treatment (Table 19, symbol L); assay type: in vivo, windgrass (Apera spica-venti); conditions: amount of applied herbicide 320 g/ha
How it was run: as §3

velvetleaf [9] = assay: Test Example 4: herbicidal effect by soil treatment (Table 19, symbol M); assay type: in vivo, velvetleaf (Abutilon theophrasti); conditions: amount of applied herbicide 320 g/ha
How it was run: as §3

redroot pigweed [10] = assay: Test Example 4: herbicidal effect by soil treatment (Table 19, symbol N); assay type: in vivo, redroot pigweed (Amaranthus retroflexus); conditions: amount of applied herbicide 320 g/ha
How it was run: as §3

lambsquarters [11] = assay: Test Example 4: herbicidal effect by soil treatment (Table 19, symbol O); assay type: in vivo, lambsquarters (Chenopodium album); conditions: amount of applied herbicide 320 g/ha
How it was run: as §3

chickweed [12] = assay: Test Example 4: herbicidal effect by soil treatment (Table 19, symbol P); assay type: in vivo, common chickweed (Stellaria media); conditions: amount of applied herbicide 320 g/ha
How it was run: as §3

persian speedwell [13] = assay: Test Example 4: herbicidal effect by soil treatment (Table 19, symbol R); assay type: in vivo, Persian speedwell (Veronica persica); conditions: amount of applied herbicide 320 g/ha
How it was run: as §3

southern crabgrass [14] = assay: Test Example 5: herbicidal effect by foliage application, plastic box (Table 20, symbol F); assay type: in vivo, southern crabgrass (Digitaria ciliaris); conditions: foliage application, AAH 320 g/ha, evaluated three weeks after application
How it was run: (§4)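 Plants were sown into sterilized diluvial soil under about 1.5 cm cover and kept in a greenhouse at 25° C. to 30° C. Fourteen days on, foliage received an even spray of the diluted emulsion. Herbicidal or crop effect was judged three weeks afterwards.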

green foxtail [15] = assay: Test Example 5: herbicidal effect by foliage application, plastic box (Table 20, symbol G); assay type: in vivo, green foxtail (Setaria viridis); conditions: foliage application, AAH 320 g/ha, evaluated three weeks after application
How it was run: as §4

barnyard grass [16] = assay: Test Example 5: herbicidal effect by foliage application, plastic box (Table 20, symbol H); assay type: in vivo, barnyard grass (Echinochloa crus-galli); conditions: foliage application, AAH 320 g/ha, evaluated three weeks after application
How it was run: as §4

wild oat [17] = assay: Test Example 5: herbicidal effect by foliage application, plastic box (Table 20, symbol I); assay type: in vivo, wild oat (Avena fatua); conditions: foliage application, AAH 320 g/ha, evaluated three weeks after application
How it was run: as §4

blackgrass [18] = assay: Test Example 5: herbicidal effect by foliage application, plastic box (Table 20, symbol J); assay type: in vivo, blackgrass (Alopecurus myosuroides); conditions: foliage application, AAH 320 g/ha, evaluated three weeks after application
How it was run: as §4

Italian ryegrass [19] = assay: Test Example 5: herbicidal effect by foliage application, plastic box (Table 20, symbol K); assay type: in vivo, Italian ryegrass (Lolium multiflorum); conditions: foliage application, AAH 320 g/ha, evaluated three weeks after application
How it was run: as §4

windgrass [20] = assay: Test Example 5: herbicidal effect by foliage application, plastic box (Table 20, symbol L); assay type: in vivo, windgrass (Apera spica-venti); conditions: foliage application, AAH 320 g/ha, evaluated three weeks after application
How it was run: as §4

velvetleaf [21] = assay: Test Example 5: herbicidal effect by foliage application, plastic box (Table 20, symbol M); assay type: in vivo, velvetleaf (Abutilon theophrasti); conditions: foliage application, AAH 320 g/ha, evaluated three weeks after application
How it was run: as §4

redroot pigweed [22] = assay: Test Example 5: herbicidal effect by foliage application, plastic box (Table 20, symbol N); assay type: in vivo, redroot pigweed (Amaranthus retroflexus); conditions: foliage application, AAH 320 g/ha, evaluated three weeks after application
How it was run: as §4

lambsquarters [23] = assay: Test Example 5: herbicidal effect by foliage application, plastic box (Table 20, symbol O); assay type: in vivo, lambsquarters (Chenopodium album); conditions: foliage application, AAH 320 g/ha, evaluated three weeks after application
How it was run: as §4

chickweed [24] = assay: Test Example 5: herbicidal effect by foliage application, plastic box (Table 20, symbol P); assay type: in vivo, common chickweed (Stellaria media); conditions: foliage application, AAH 320 g/ha, evaluated three weeks after application
How it was run: as §4

persian speedwell [25] = assay: Test Example 5: herbicidal effect by foliage application, plastic box (Table 20, symbol R); assay type: in vivo, Persian speedwell (Veronica persica); conditions: foliage application, AAH 320 g/ha, evaluated three weeks after application
How it was run: as §4

[26] = amount of applied herbicide 320 g/ha

Compound | herbicidal effect on H: barnyard grass (barnyard grass [1]) | herbicidal effect on D: Chinese sprangletop (Chinese sprangletop) | herbicidal effect on E: rice flat sedge (rice flat sedge) | F: southern crabgrass, herbicidal effect (criteria 0-5) (southern crabgrass [14]) | G: green foxtail, herbicidal effect (criteria 0-5) (green foxtail [15]) | H: barnyard grass, herbicidal effect (criteria 0-5) (barnyard grass [16]) | I: wild oat, herbicidal effect (criteria 0-5) (wild oat [17]) | J: blackgrass, herbicidal effect (criteria 0-5) (blackgrass [18]) | K: Italian ryegrass, herbicidal effect (criteria 0-5) (Italian ryegrass [19]) | L: windgrass, herbicidal effect (criteria 0-5) (windgrass [20]) | M: velvetleaf, herbicidal effect (criteria 0-5) (velvetleaf [21]) | N: redroot pigweed, herbicidal effect (criteria 0-5) (redroot pigweed [22]) | O: lambsquarters, herbicidal effect (criteria 0-5) (lambsquarters [23]) | P: chickweed, herbicidal effect (criteria 0-5) (chickweed [24]) | R: persian speedwell, herbicidal effect (criteria 0-5) (persian speedwell [25]) | further results
Cc1nn(C)c(=O)c(-c2c(-c3ccc(F)c(F)c3)sc3ccc(F)cc23)c1O [2-344] | 5 (Herbicidal rate of 90% or more (almost completely withered)) | 4 (Herbicidal rate of 70% or more and less than 90%) | 5 (Herbicidal rate of 90% or more (almost completely withered)) | 5 (Herbicidal rate of 90% or more (almost completely withered)) | 5 (Herbicidal rate of 90% or more (almost completely withered)) | 5 (Herbicidal rate of 90% or more (almost completely withered)) | 3 (Herbicidal rate of 40% or more and less than 70%) | 2 (Herbicidal rate of 20% or more and less than 40%) | 5 (Herbicidal rate of 90% or more (almost completely withered)) | 5 (Herbicidal rate of 90% or more (almost completely withered)) | 5 (Herbicidal rate of 90% or more (almost completely withered)) | 5 (Herbicidal rate of 90% or more (almost completely withered)) | 4 (Herbicidal rate of 70% or more and less than 90%) | 5 (Herbicidal rate of 90% or more (almost completely withered)) | 5 (Herbicidal rate of 90% or more (almost completely withered)) | Herbicidal effect on A: late watergrass (grade 0-5) (late watergrass; 320 g/ha applied herbicide): 0 (Herbicidal rate of 5% or less (almost no effect)); Herbicidal effect on B: Japanese bulrush (grade 0-5) (Japanese bulrush; 320 g/ha applied herbicide): 2 (Herbicidal rate of 20% or more and less than 40%); Herbicidal effect on C: oval-leafed pondweed (grade 0-5) (oval-leafed pondweed; 320 g/ha applied herbicide): 0 (Herbicidal rate of 5% or less (almost no effect)); herbicidal effect on F: southern crabgrass (southern crabgrass [2]): 5 (Herbicidal rate of 90% or more (almost completely withered)); herbicidal effect on G: green foxtail (green foxtail [3]): 5 (Herbicidal rate of 90% or more (almost completely withered)); herbicidal effect on H: barnyard grass (barnyard grass [4]): 4 (Herbicidal rate of 70% or more and less than 90%); herbicidal effect on I: wild oat (wild oat [5]): 0 (Herbicidal rate of 5% or less (almost no effect)); herbicidal effect on J: blackgrass (blackgrass [6]): 0 (Herbicidal rate of 5% or less (almost no effect)); herbicidal effect on K: Italian ryegrass (Italian ryegrass [7]): 5 (Herbicidal rate of 90% or more (almost completely withered)); herbicidal effect on L: windgrass (windgrass [8]): 0 (Herbicidal rate of 5% or less (almost no effect)); herbicidal effect on M: velvetleaf (velvetleaf [9]): 3 (Herbicidal rate of 40% or more and less than 70%); herbicidal effect on N: redroot pigweed (redroot pigweed [10]): 5 (Herbicidal rate of 90% or more (almost completely withered)); herbicidal effect on O: lambsquarters (lambsquarters [11]): 5 (Herbicidal rate of 90% or more (almost completely withered)); herbicidal effect on P: chickweed (chickweed [12]): 4 (Herbicidal rate of 70% or more and less than 90%); herbicidal effect on R: persian speedwell (persian speedwell [13]): 5 (Herbicidal rate of 90% or more (almost completely withered))
CCCC(=O)Oc1c(C)nn(C)c(=O)c1-c1c(-c2cnccc2C(F)(F)F)sc2ccc(F)cc12 [2-388] | 5 (Herbicidal rate of 90% or more (almost completely withered)) | 3 (Herbicidal rate of 40% or more and less than 70%) | 3 (Herbicidal rate of 40% or more and less than 70%) | 1 (Herbicidal rate of 5% or more and less than 20%) | 3 (Herbicidal rate of 40% or more and less than 70%) | 4 (Herbicidal rate of 70% or more and less than 90%) | 3 (Herbicidal rate of 40% or more and less than 70%) | 1 (Herbicidal rate of 5% or more and less than 20%) | 3 (Herbicidal rate of 40% or more and less than 70%) | 4 (Herbicidal rate of 70% or more and less than 90%) | 5 (Herbicidal rate of 90% or more (almost completely withered)) | 4 (Herbicidal rate of 70% or more and less than 90%) | 4 (Herbicidal rate of 70% or more and less than 90%) | 5 (Herbicidal rate of 90% or more (almost completely withered)) | 5 (Herbicidal rate of 90% or more (almost completely withered)) | Herbicidal effect, A: late watergrass (late watergrass; [26]): 5 (Herbicidal rate of 90% or more (almost completely withered)); Herbicidal effect, B: Japanese bulrush (Japanese bulrush; [26]): 0 (Herbicidal rate of 5% or less (almost no effect)); Herbicidal effect, C: oval-leafed pondweed (oval-leafed pondweed; [26]): 0 (Herbicidal rate of 5% or less (almost no effect)); herbicidal effect, F: southern crabgrass (southern crabgrass [2]): 0 (Herbicidal rate of 5% or less (almost no effect)); herbicidal effect, G: green foxtail (green foxtail [3]): 0 (Herbicidal rate of 5% or less (almost no effect)); herbicidal effect, H: barnyard grass (barnyard grass [4]): 3 (Herbicidal rate of 40% or more and less than 70%); herbicidal effect, I: wild oat (wild oat [5]): 0 (Herbicidal rate of 5% or less (almost no effect)); herbicidal effect, J: blackgrass (blackgrass [6]): 0 (Herbicidal rate of 5% or less (almost no effect)); herbicidal effect, K: Italian ryegrass (Italian ryegrass [7]): 0 (Herbicidal rate of 5% or less (almost no effect)); herbicidal effect, L: windgrass (windgrass [8]): 0 (Herbicidal rate of 5% or less (almost no effect)); herbicidal effect, M: velvetleaf (velvetleaf [9]): 0 (Herbicidal rate of 5% or less (almost no effect)); herbicidal effect, N: redroot pigweed (redroot pigweed [10]): 1 (Herbicidal rate of 5% or more and less than 20%); herbicidal effect, O: lambsquarters (lambsquarters [11]): 2 (Herbicidal rate of 20% or more and less than 40%); herbicidal effect, P: chickweed (chickweed [12]): 5 (Herbicidal rate of 90% or more (almost completely withered)); herbicidal effect, R: persian speedwell (persian speedwell [13]): 5 (Herbicidal rate of 90% or more (almost completely withered))
